The nature of series [1]: Antioxidant activity assessed as DPPH radical scavenging activity after 30 mins by UV-spectrophotometry. It counts as physicochemical.
Series [2] can be described thus: Antioxidant activity assessed as DPPH radical scavenging activity at <= 20 ug/ml after 30 mins by UV-spectrophotometry. It counts as physicochemical. As to conditions: 0.5 h; call rule not given here.

The record followed here is ChEMBL document CHEMBL3352682, “Unusual C,O-Fused Glycosylapigenins from Serjania marginata Leaves” (J Nat Prod, 2015).

Converted amounts (≈) assume the structure as drawn.

What is called IC50 is the concentration that gives 50% inhibition. Regarding `C[C@@H]1O[C@@H](O[C@H]2C(=O)[C@@H](O)[C@H](C)O[C@@H]2c2c(O)cc3oc(-c4ccc(O)cc4)cc(=O)c3c2O)[C@H](O)[C@H](O)[C@H]1O`, the IC50 result in series [1] is on record as “Not Active”. For the same compound, the “inhibition (INH)” value in series [2] is on record as “Not Active”.
Turning to `C[C@@H]1O[C@@H](O[C@H]2C(=O)[C@@H](O)[C@H](C)O[C@@H]2c2c(O)cc(O)c3c(=O)cc(-c4ccc(O)cc4)oc23)[C@H](O)[C@H](O)[C@H]1O`, the IC50 entry in series [1] is reported as “Not Active”. In addition, in series [2], the “inhibition (INH)” value is reported as “Not Active”.
As to `Oc1cc(O)c2c(c1)O[C@@]1(c3ccc(O)c(O)c3)Oc3cc(O)c4c(c3[C@@H]2[C@H]1O)O[C@H](c1ccc(O)c(O)c1)[C@H](O)[C@H]4c1c(O)cc(O)c2c1O[C@H](c1ccc(O)c(O)c1)[C@H](O)C2` [CINNAMTANNIN B1], the IC50 in series [1] came to 5.3 µg/mL (≈ 6.13 µM).
Same read-out and setting: the result for `O=C(O)c1cc(O)c(O)c(O)c1` [GALLIC ACID] reads 8.42 µg/mL (≈ 49.5 µM).
Still for that read-out and setting: the same measure for `Oc1cc(O)c2c(c1)O[C@@]1(c3ccc(O)c(O)c3)Oc3cc(O)c4c(c3[C@@H]2[C@H]1O)O[C@H](c1ccc(O)c(O)c1)[C@@H](O)C4` [PROANTHOCYANIDIN A1]: 8.55 µg/mL (≈ 14.8 µM).
On the same count and under the same terms, the same measure for `Oc1cc(O)c2c(c1)O[C@@]1(c3ccc(O)c(O)c3)Oc3cc(O)c4c(c3[C@@H]2[C@H]1O)O[C@H](c1ccc(O)c(O)c1)[C@H](O)C4` [PROANTHOCYANIDIN A2]: 9.71 µg/mL (≈ 16.8 µM).
